For 11 molecules, Activity results are on record in ChEMBL document CHEMBL3045989, “The Veratrum alkaloids jervine, veratramine, and their analogues as prostate cancer migration and proliferation inhibitors: biological evaluation and pharmacophore modeling” (Med Chem Res, 2013).

What all share (type): functional, cell-based
Experiment [1] concerns PC-3. Briefly: Antiproliferative activity against Homo sapiens (human) PC3 cells at 50 uM after 72 hr by MTT assay. In general terms: Tetrazolium assays rely on reduction of a dye to a coloured formazan, in cell work by metabolically active cells.
Experiment [2] has as its system PC-3. Briefly: Antimigratory activity against Homo sapiens (human) PC3 cells at 50 uM after 24 hr by wound-healing assay.
The test system of experiment [3] is PC-3. The experiment in a line: Antiproliferative activity against Homo sapiens (human) PC3 cells at 10 uM after 72 hr by MTT assay.
Experiment [4] concerns PC-3. Briefly: Antimigratory activity against Homo sapiens (human) PC3 cells at 200 uM after 24 hr by wound-healing assay.
Experiment [5] has as its system PC-3. Briefly: Antiproliferative activity against Homo sapiens (human) PC3 cells at 1 uM after 72 hr by MTT assay.

Molecules are shown by their SMILES. Activity calls are given as the source filed them. No cut-off for these calls is given here.

In the case of `Cc1c([C@H](C)[C@@H]2NC[C@@H](C)C[C@H]2O)ccc2c1C[C@H]1[C@H]2CCC2=CC(=O)CC[C@@]21C`, the result in the experiment with PC-3 [1], with PC-3 [2] and with PC-3 [3] was Active.

Consider `Cc1c([C@H](C)[C@@H]2NC[C@@H](C)C[C@H]2O)ccc2c1C[C@H]1[C@H]2CC=C2C[C@@H](O)CC[C@@]21C`, for which the result in the experiment with PC-3 [1] and in the experiment with PC-3 [2] was Active.

For `CC1=C2C(=O)[C@H]3[C@@H](CC=C4C[C@@H](O[C@@H]5O[C@H](CO)[C@@H](O)[C@H](O)[C@H]5O)CC[C@@]43C)[C@@H]2CC[C@]12O[C@@H]1C[C@H](C)CN[C@H]1[C@H]2C`, the outcome in the experiment on PC-3 [1] and in the experiment with PC-3 [2] was inactive.

As for `Cc1c([C@H](C)[C@@H]2NC[C@@H](C)C[C@H]2O)ccc2c1C[C@H]1[C@H]2CC[C@H]2CC(=O)CC[C@@]21C`, the result in the experiment on PC-3 [1] and with PC-3 [2] was Active.

Turning to `O=C1NC(=O)/C(=C/c2ccc(O)cc2)N1`, the result in the experiment with PC-3 [4] was Active.

For `C/C1=C/C(=O)O[C@@H]2C[C@@H](CC[C@H](C)/C=C\C=C\CC1)O[C@@](O)([C@@H]1CSC(=O)N1)C2`, the result with PC-3 [5] was Active.

For the molecule `CC1=C2C(=O)[C@H]3[C@@H](CC=C4C[C@@H](O)CC[C@@]43C)[C@@H]2CC[C@]12O[C@@H]1C[C@H](C)CN[C@H]1[C@H]2C`, the result in the experiment with PC-3 [1] and in the experiment with PC-3 [2] was Active.

Consider `CC1=C2C(=O)[C@H]3[C@@H](CC[C@H]4C[C@@H](O)CC[C@@]43C)[C@@H]2CC[C@]12O[C@@H]1C[C@H](C)CN[C@H]1[C@H]2C`, for which the outcome in the experiment on PC-3 [1] was Active. Moreover, the outcome in the experiment on PC-3 [2] was inactive.

With `CC1=C2C(=O)[C@H]3[C@@H](CC=C4CC(=O)CC[C@@]43C)[C@@H]2CC[C@]12O[C@@H]1C[C@H](C)CN[C@H]1[C@H]2C`, the result in the experiment on PC-3 [1] and in the experiment with PC-3 [2] was Active.

Turning to `CC1=C2C(=O)[C@H]3[C@@H](CC[C@H]4C[C@@H](O)C[C@H](O)[C@@]43C)[C@@H]2CC[C@]12O[C@@H]1C[C@H](C)CN[C@H]1[C@H]2C`, in the experiment on PC-3 [1], the outcome was inactive. Moreover, the outcome with PC-3 [2] was Active.

On to `Cc1c([C@H](C)[C@@H]2NC[C@@H](C)C[C@H]2O)ccc2c1C[C@H]1[C@H]2CCC2=CC(=O)C=C[C@@]21C`, for which the result in the experiment on PC-3 [1] and with PC-3 [2] was Active.
